Like-named read-outs stand apart in the source and are kept apart here.
How the values were obtained:
[1] = test system: Sweetpotato Whitefly-Crawler (Bemisia Tabaci); assay: Insecticidal test for sweetpotato whitefly-crawler in foliar spray assay (col. BEMITA); type: in vivo; details: Bemisia tabaci, read-out: BEMITA 200 ppm (Corrected % Control, rating)
In short: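 Cotton plants (one 3-5 cm true leaf) infested with whitefly eggs (100-300/plant), held 5-6 days at 82° F, 50% RH until crawlers developed. Sprayed to runoff at 200 ppm (acetone stock diluted in 0.025% Tween 20), four plants per treatment. Live nymphs counted after 8-9 days; % control by Abbott's correction versus solvent check.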

[2] = test system: Green Peach Aphid (Myzus Persicae); assay: Insecticidal test for green peach aphid in foliar spray assay (col. MYZUPE); type: in vivo; details: Myzus persicae, 72 h, read-out: MYZUPE 200 ppm (Corrected % Control, rating)
In short: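 Cabbage seedlings with 2-3 true leaves, infested with 20-50 wingless adult and nymph aphids one day earlier, sprayed to runoff at 200 ppm (acetone/methanol stock diluted in 0.025% Tween 20), four pots per treatment. After 3 days at ~25 °C, 40% RH, live aphids counted; corrected % control versus solvent-sprayed plants.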

SMILES | pest or weed control at 200 ppm ([1]; sweetpotato whitefly-crawler) [%] | melting point [°C] | pest or weed control at 200 ppm ([2]; green peach aphid) [%] | pest or weed control at 200 ppm ([1]; Abbott's correction formula) [%] | pest or weed control at 200 ppm ([2]; Abbott's correction formula) [%]
Cc1nc(-c2cccnc2)sc1NC(=O)OCC(F)(F)F [Compound 380] | < 80 | 170 to 178 | < 80 | – | –
Cc1nc(-c2cccnc2)sc1NC(=O)c1cccc(SC(F)F)c1 [Compound 381] | < 80 | 158 to 159 | < 80 | – | –
CCc1cc(C(=O)N(C)c2sc(-c3cccnc3)nc2Cl)no1 [Compound 383] | 80 to 100 | 121 to 124 | < 80 | – | –
Cc1nc(-c2cccnc2)sc1N(C)C(=S)NC(C)C [Compound 386] | 80 to 100 | 163 to 164 | 80 to 100 | – | –
CCc1cc(C(=O)Nc2sc(-c3cccnc3)nc2C)no1 [Compound 387] | 80 to 100 | 129 to 130 | < 80 | – | –
CCS(=O)(=O)N1CCCC(C(=O)Nc2sc(-c3cccnc3)nc2C)C1 (stereo not drawn) [Compound 388] | 80 to 100 | 190 to 194 | 80 to 100 | – | –
Cc1nc(-c2cccnc2)sc1NC(=O)Cn1nc(C)c(S(=O)(=O)N(C)C)c1C [Compound 389] | < 80 | 214 to 215 | < 80 | – | –
Cc1nn(CC(=O)N(C)c2sc(-c3cccnc3)nc2Cl)c(C)c1S(=O)(=O)N(C)C [Compound 390] | 80 to 100 | 185 to 186 | < 80 | – | –
CCCNC(=O)N(C)c1sc(-c2cccnc2)nc1C [Compound 391] | 80 to 100 | 150 to 151 | 80 to 100 | – | –
CN(C(=O)CC[S+](C)[O-])c1sc(-c2cncc(F)c2)nc1F (stereo not drawn) [Compound 392] | 80 to 100 | 113 to 116 | 80 to 100 | – | –
CCOC(=O)c1nc(-c2cccnc2)sc1NC(=O)C(C)CSC (stereo not drawn) [Compound 395] | < 80 | 93 to 101 | < 80 | – | –
Cc1nc(-c2cccnc2)sc1N(C)C(=S)Nc1ccc(Cl)cc1 [Compound 398] | 80 to 100 | 53 to 54 | < 80 | – | –
CSCCC(=O)Nc1sc(-c2cncc(F)c2)nc1Cl [Compound 421] | < 80 | 153 to 154 | 80 to 100 | – | –
CC(C)(C)OC(=O)N(C(=O)OC(C)(C)C)c1cnc(-c2cccnc2)s1 [Compound 422] | < 80 | 114 to 117 | 80 to 100 | – | –
CCNC(=S)N(C)c1sc(-c2cccnc2)nc1C [Compound 449] | – | 137 to 140 | – | 80 to 100 | 80 to 100
CN(C(=O)CC[S+](C)[O-])c1sc(-c2cncc(F)c2)nc1Br (stereo not drawn) [Compound 454] | – | 170 to 173 | – | 80 to 100 | 80 to 100
CN(C(=O)CCS(C)(=O)=O)c1sc(-c2cncc(F)c2)nc1Br [Compound 455] | – | 198 to 201 | – | 80 to 100 | 80 to 100
CS(=O)(=O)CCC(=O)Nc1sc(-c2cncc(F)c2)nc1Cl [Compound 459] | – | 239 to 240 | – | < 80 | 80 to 100
CN(C(=O)CCS(C)(=O)=O)c1sc(-c2ccc(F)nc2)nc1Cl [Compound 470] | – | 42 to 46 | – | < 80 | 80 to 100
CC(C[S+](C)[O-])C(=O)N(C)c1sc(-c2cnc(Cl)c(F)c2)nc1Cl (stereo not drawn) [Compound 474] | – | 30 to 35 | – | < 80 | < 80
CC(CS(C)(=O)=O)C(=O)N(C)c1sc(-c2cnc(Cl)c(F)c2)nc1Cl (stereo not drawn) [Compound 475] | – | 55 to 61 | – | < 80 | < 80
CN(C(=O)OC(C)(C)C)c1sc(-c2cncc(F)c2)nc1Cl [Compound 476] | – | 119 to 120 | – | < 80 | 80 to 100
CC(C)(C)OC(=O)Nc1sc(-c2cccnc2)nc1F [Compound 478] | – | 184 to 186 | – | < 80 | 80 to 100
CC(C)(C)OC(=O)Nc1sc(-c2cncc(F)c2)nc1I [Compound 481, tert-butyl 2-(5-fluoropyridin-3-yl)-4-iodothiazol-5-yl carbamate] | – | 148 to 149 | – | < 80 | < 80

SMILES | pest or weed control at 200 ppm ([1]; sweetpotato whitefly-crawler) [%] | melting point [°C] | pest or weed control at 200 ppm ([2]; green peach aphid) [%] | pest or weed control at 200 ppm ([1]; Abbott's correction formula) [%] | pest or weed control at 200 ppm ([2]; Abbott's correction formula) [%]
CSC(C)CC(=O)Nc1sc(-c2cccnc2)nc1Cl (stereo not drawn) [Compound 487] | – | 120 to 125 | – | 80 to 100 | 80 to 100
CSC(C)(C)CC(=O)Nc1sc(-c2cccnc2)nc1Cl [Compound 488] | – | 113 to 115 | – | 80 to 100 | 80 to 100
CCCC(C)(C)OC(=O)N(C)c1sc(-c2cccnc2)nc1C [Compound 491] | – | 65 to 69 | – | 80 to 100 | 80 to 100
CSCCC(=O)N(C(=O)OC(C)(C)C)c1sc(-c2cncc(F)c2)nc1C#N [Compound 494] | – | 105 to 106 | – | < 80 | < 80
CN(C(=O)OC(C)(C)C)c1sc(-c2cncc(F)c2)nc1I [Compound 497] | – | 70 to 71 | – | 80 to 100 | 80 to 100
C=CC(=O)Nc1sc(-c2cncc(F)c2)nc1C#N [Compound 502] | – | 231 to 232 | – | < 80 | < 80
CSCCC(=O)N(C)c1sc(-c2cncc(F)c2)nc1C#N [Compound 503] | – | 97 to 98 | – | < 80 | < 80
CN(C(=O)CC[S+](C)[O-])c1sc(-c2cncnc2)nc1Cl (stereo not drawn) [Compound 510] | – | 137 to 140 | – | 80 to 100 | 80 to 100
CSCCC(=O)N(C)c1sc(-c2cnccc2F)nc1Cl [Compound 515] | – | 74 to 76 | – | < 80 | < 80
Cc1nc(-c2cncc(F)c2)sc1N(C)C(=S)NC1CC1 [Compound 519, 3-cyclopropyl-1-[2-(5-fluoro-pyridin-3-yl)-4-methyl-thiazol-5-yl]-1-methyl-thiourea] | – | 117 to 119 | – | < 80 | 80 to 100
C/C=C/C(=O)N(C)c1sc(-c2cccnc2)nc1Br [Compound 526] | – | 121 to 125 | – | 80 to 100 | 80 to 100
CCN(C(=O)c1cscn1)c1sc(-c2cccnc2)nc1Cl [Compound 529] | – | 82 to 86 | – | < 80 | 80 to 100
CCN(C(=O)C1(C)CC1(Cl)Cl)c1sc(-c2cccnc2)nc1Cl (stereo not drawn) [Compound 536] | – | 144 to 146 | – | < 80 | < 80
CCN(C(=O)C(C)Cn1nc(C)nc1C)c1sc(-c2cccnc2)nc1Cl (stereo not drawn) [Compound 541] | – | 102 to 105 | – | < 80 | 80 to 100
CCN(C(=O)c1cn(C)nc1C(F)(F)F)c1sc(-c2cccnc2)nc1Cl [Compound 547] | – | 110 to 111 | – | 80 to 100 | 80 to 100
CCN(C(=O)c1sc(C)nc1C(F)(F)F)c1sc(-c2cccnc2)nc1Cl [Compound 548] | – | 102 to 103 | – | 80 to 100 | 80 to 100
COc1ncc(-c2nc(Cl)c(N(C)C(=O)CCSC)s2)cc1F [Compound 551] | – | 92 to 94 | – | < 80 | < 80
COc1ncc(-c2nc(Cl)c(N(C)C(=O)CC[S+](C)[O-])s2)cc1F (stereo not drawn) [Compound 558] | – | 132 to 135 | – | < 80 | < 80
CCN(C(=O)c1cc(Cl)cc(Cl)c1)c1sc(-c2cccnc2)nc1Cl [Compound 564] | – | 172 to 174 | – | < 80 | < 80
CSCCN(C(=O)OC(C)(C)C)c1sc(-c2cccnc2)nc1C [Compound 567] | – | 63 to 68 | – | < 80 | 80 to 100
CCN(C(=O)c1cocn1)c1sc(-c2cccnc2)nc1Cl [Compound 570] | – | 118 to 120 | – | < 80 | 80 to 100
CCN(C(=O)c1cnn(C)c1C(F)(F)F)c1sc(-c2cccnc2)nc1Cl [Compound 577] | – | 115 to 117 | – | < 80 | 80 to 100
Cc1nc(-c2cncc(F)c2)sc1N(C)C(=O)C1CCCN(C(=O)OC(C)(C)C)C1 (stereo not drawn) [Compound 580] | – | 51 to 60 | – | 80 to 100 | < 80

Reference: patent publication US8853246B2 (Dow AgroSciences LLC, priority 2009, dated 2014)
